# Reference: patent US10365289B2 (Max-Planck-Gesellschaft zur Forderung der Wissenschaften …, priority 2014, dated 2019)
# Assays:
# [1] = described ranking of GA isoforms; cited from earlier work
# [2] = target: T1, Arabidopsis thaliana GID1C based sensor (Arabidopsis thaliana, UniProt Q940G6); assay: in planta assay: GA sensor in ga1-3 mutant plants sprayed with GA3, luciferase imaging; type: in vivo; details: ga1-3 plants containing the sensor, sprayed with 100 μM GA3 solution vs mock; FIG. 4
# T1 construct: expressed in transfected cells; host or cells: Arabidopsis thaliana ga1-3 mutant plants (Ler background), Agrobacterium floral dip, construct IR216 (35S::GID1CLUC in pFK210)
# Excerpt: To validate in planta the results obtained in yeast, the inventors introduced the GA sensors under the control of the constitutive viral promoter 35S into Arabidopsis thaliana plants. The constructs IR208 and IR216 were independently introduced using the floral dip method of Agrobacterium-mediated transformation into the Arabidopsis thaliana Ler-1 (Landsberg erecta) wild-type strain and its isogenic ga1-3 mutant strain (containing a deletion in the gene for the enzyme that catalyzes an early step in the synthesis of GA: Sun et al., Plant Cell, 1992, 4, 119-128). Plants were grown in soil under Basta™ selection and short day conditions (8h light/16h dark).
# In this case, the Arabidopsis thaliana GID1C based sensor produced a faster and stronger signal than the Arabidopsis thaliana GID1B based sensor. To ascertain whether the reporter system according to the invention could quantitatively report the presence of endogenous bioactive GA isoforms, the inventors grew the Arabidopsis thaliana Ler-1 wild-type plants containing the Arabidopsis thaliana GID1C based sensor along with Arabidopsis thaliana GA3ox1-GUS and GA3ox2-GUS reporter lines. The GA sensor was active in a pattern that indicated the presence of active forms of GA in emerging leaves and at the base and vasculature of older leaves. […]
# [3] = target: T2, GID1B based sensor (GID1B.5) (Arabidopsis thaliana, UniProt Q9LYC1, V53A); assay: yeast solid media luciferase assay, GID1B based sensor (GID1B.5) with overlapping firefly luciferase fragments; type: cell-based; details: GA3 100 μM vs mock (100% ethanol), FIG. 7
# T2 construct: a GID1B based sensor with overlapping firefly luciferase fragments (plasmid IR235); expressed in transfected cells; host or cells: Saccharomyces cerevisiae (yeast), plasmid printed as IR235
# Experimental: In order to assess the impact of the presence of overlapping parts of firefly luciferase on the GID1B based sensor (GID1B.5) at the split point, a GID1B based sensor with overlapping firefly luciferase fragments (plasmid IR235) was compared in a Y2H assay to a GID1B based sensor without overlapping firefly luciferase fragments (plasmid IR241).
# Four representative colonies were selected and plated onto Nylon membranes as described before. After 3 days at 30° C. the membranes were incubated in selective media containing luciferase substrate for 4 hours in dark at room temperature. Each replicate was subsequently transferred to plates containing selective media supplemented with luciferase substrate. […] Luciferase activity was recorded as indicated before.
# [4] = target: T3, GID1C based sensor peptide with co-expression of a DELLA protein (GAI) (Arabidopsis thaliana, UniProt Q940G6); assay: yeast liquid luciferase assay, GID1C based sensor with co-expression of the DELLA protein GAI; type: cell-based; details: Saccharomyces cerevisiae, GAI co-expressed; FIG. 6D
# T3 construct: expressed in transfected cells; host or cells: Saccharomyces cerevisiae AH109, plasmids IR214 (GID1CLUC-pDest22) and IR236 (GAI in pDEST32)
# Experimental: Two representative colonies were selected and plated onto Nylon membranes as described before. After 3 days at 30° C. the membranes were incubated in selective media containing luciferase substrate for 4 hours in dark at room temperature. […] Luciferase activity was recorded as indicated before. For liquid assays, the inventors inoculated one representative colony for each version of the sensor in 5 ml of selective media (YNB, MPBlo, supplemented with CSM Trp^−, Bio 101) containing luciferase substrate and grown under shaking at 28° C. for 18 hours. […] Plates were incubated for 16 hours at 28° C. in a cabinet and luciferase activity was recorded during the entire period of the experiment using a Topcount™ device (Perkin Elmer).
# First, the coding sequence of the DELLA protein GAI (At1g14920) was cloned into the yeast plasmid pDEST32 (Invitrogen) yielding the construct IR236. Subsequently, yeast cells were transformed with the plasmids IR206 or IR214 in combination with the empty pDEST32 vector or IR236. Following the same approach than described before in Example 3, we assayed 4 GA isoforms, the same four than in the former assay. The experimental setting was the same than in Example 3 with the difference that the selective media used was deficient in Trp and Leu (YNB, MPBlo, supplemented with CSM Trp^−Leu^−, Bio 101) to select for the presence of both plasmids within the yeast cells. […]
# T3 sequence (Q940G6 with tags, fused parts or gaps): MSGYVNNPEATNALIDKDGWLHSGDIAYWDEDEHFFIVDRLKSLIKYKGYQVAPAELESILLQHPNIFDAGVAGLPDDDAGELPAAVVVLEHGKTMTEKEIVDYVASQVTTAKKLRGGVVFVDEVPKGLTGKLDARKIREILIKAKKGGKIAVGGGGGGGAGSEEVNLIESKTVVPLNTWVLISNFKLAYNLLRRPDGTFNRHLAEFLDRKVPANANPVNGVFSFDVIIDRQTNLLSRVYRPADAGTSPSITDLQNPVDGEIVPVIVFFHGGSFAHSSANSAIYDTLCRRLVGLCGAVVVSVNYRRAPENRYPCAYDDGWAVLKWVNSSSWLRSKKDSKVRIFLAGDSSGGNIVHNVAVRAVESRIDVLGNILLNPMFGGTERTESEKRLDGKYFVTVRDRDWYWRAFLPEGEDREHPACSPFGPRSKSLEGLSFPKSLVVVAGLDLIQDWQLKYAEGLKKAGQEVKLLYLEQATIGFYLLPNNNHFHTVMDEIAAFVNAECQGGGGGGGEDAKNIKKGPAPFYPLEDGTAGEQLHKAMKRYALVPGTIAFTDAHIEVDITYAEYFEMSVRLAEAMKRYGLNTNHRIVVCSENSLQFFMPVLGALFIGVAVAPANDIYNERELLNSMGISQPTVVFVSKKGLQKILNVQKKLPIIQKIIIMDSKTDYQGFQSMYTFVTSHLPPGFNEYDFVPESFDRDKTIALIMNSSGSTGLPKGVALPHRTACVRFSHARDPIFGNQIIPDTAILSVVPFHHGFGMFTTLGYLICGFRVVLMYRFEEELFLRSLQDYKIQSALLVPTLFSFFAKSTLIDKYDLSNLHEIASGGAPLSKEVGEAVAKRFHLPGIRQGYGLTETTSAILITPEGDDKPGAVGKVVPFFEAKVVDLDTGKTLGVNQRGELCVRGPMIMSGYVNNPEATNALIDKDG
# T3 sequence (Q9LQT8 2-533 partner limits assumed): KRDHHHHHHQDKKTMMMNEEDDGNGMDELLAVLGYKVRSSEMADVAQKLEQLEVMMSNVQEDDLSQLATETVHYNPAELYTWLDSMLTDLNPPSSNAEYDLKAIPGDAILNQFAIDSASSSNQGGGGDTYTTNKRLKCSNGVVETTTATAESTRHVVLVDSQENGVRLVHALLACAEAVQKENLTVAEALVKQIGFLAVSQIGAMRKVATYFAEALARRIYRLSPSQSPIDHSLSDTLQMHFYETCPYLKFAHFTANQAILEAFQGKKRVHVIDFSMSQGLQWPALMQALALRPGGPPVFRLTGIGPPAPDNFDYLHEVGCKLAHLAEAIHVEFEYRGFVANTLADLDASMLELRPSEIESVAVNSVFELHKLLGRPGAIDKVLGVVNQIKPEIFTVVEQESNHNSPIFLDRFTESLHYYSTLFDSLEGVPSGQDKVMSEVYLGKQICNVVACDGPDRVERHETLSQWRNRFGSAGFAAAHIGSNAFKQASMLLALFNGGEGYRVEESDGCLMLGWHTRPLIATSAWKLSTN
# T1 sequence (Q940G6 with tags, fused parts or gaps): as the sequence (Q940G6 with tags, fused parts or gaps) above
# T2 sequence (Q9LYC1 other isoform, or with tags, fused parts or gaps V53A): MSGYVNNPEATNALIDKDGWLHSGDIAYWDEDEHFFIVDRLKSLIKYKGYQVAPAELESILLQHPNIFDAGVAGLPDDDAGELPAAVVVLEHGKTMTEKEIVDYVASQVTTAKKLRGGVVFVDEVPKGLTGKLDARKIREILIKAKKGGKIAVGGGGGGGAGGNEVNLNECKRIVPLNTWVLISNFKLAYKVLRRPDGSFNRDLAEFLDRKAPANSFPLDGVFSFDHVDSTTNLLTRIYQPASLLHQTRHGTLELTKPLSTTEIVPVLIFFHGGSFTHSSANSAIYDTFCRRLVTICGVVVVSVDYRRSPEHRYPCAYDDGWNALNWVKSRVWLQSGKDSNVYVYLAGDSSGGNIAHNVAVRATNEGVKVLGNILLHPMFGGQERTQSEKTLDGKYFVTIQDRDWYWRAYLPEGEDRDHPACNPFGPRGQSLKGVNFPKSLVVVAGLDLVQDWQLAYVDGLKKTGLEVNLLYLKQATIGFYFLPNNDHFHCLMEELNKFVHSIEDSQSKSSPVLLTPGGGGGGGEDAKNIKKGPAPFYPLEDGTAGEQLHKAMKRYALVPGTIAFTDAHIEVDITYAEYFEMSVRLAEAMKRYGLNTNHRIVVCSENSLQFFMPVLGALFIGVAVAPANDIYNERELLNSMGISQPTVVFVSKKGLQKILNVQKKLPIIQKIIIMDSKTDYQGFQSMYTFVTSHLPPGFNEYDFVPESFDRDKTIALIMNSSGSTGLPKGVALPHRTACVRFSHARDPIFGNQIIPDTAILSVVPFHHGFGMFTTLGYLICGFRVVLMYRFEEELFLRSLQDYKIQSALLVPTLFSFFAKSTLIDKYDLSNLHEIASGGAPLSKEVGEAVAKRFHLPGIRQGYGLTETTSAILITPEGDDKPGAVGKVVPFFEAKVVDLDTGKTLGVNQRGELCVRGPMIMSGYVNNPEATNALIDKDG
SMILES,biological activity in planta assay [1],bioluminescence upon luciferase substrate application [2],luciferase signal [3],luciferase signal [4]
C=C1C[C@]23C[C@@]1(O)CC[C@H]2[C@@]12CC[C@H](O)[C@@](C)(C(=O)O1)[C@H]2[C@@H]3C(=O)O [GA1],less activity,,,
"C=C1C[C@]23C[C@@]1(O)CC[C@H]2[C@@]12C=C[C@H](O)[C@@](C)(C(=O)O1)[C@H]2[C@@H]3C(=O)O [GA3, gibberellic acid]",,showed bioluminescence,clearly higher,
"C=C1C[C@]23C[C@H]1CC[C@H]2[C@@]12CC[C@H](O)[C@@](C)(C(=O)O1)[C@H]2[C@@H]3C(=O)OC [GA4-methylester, GA4-methyl ester]",barely active,,,triggered luciferase signal
C=C1C[C@]23C[C@H]1CC[C@H]2[C@@]12CC[C@H](O)[C@@](C)(C(=O)O1)[C@H]2[C@@H]3C(=O)O [GA4],most biologically active,,,
